Data as given in publication PMC7261837, “Circumdatin D Exerts Neuroprotective Effects by Attenuating LPS-Induced Pro-Inflammatory Responses and Downregulating Acetylcholinesterase Activity In Vitro and In Vivo” (Frontiers in Pharmacology, 2020).

How the values were obtained:
NF-κB = NF-κB luciferase reporter assay; type: cell-based; details: Homo sapiens; SW480 cells stably transfected with NF-κB luciferase reporter gene, induced by LPS; mean ± SD (n = 3); read-out: NF-κB Activation IC50
Description: SW480-NF-κB cells were seeded at a density of 5 × 10^4 cells/well in 24-well plates and incubated with circumdatins with or without LPS stimulation for 6 h. The κB-dependent luciferase reporter activity in cell extracts was monitored using an automated microplate reader.

[1] = target: T1, acetylcholinesterase (AChE) from Electrophorus electrics (Electric eel) (Electrophorus electricus, UniProt O42275); assay: biochemical; details: modified Ellman's colorimetric method; mean ± SD (n = 3)
T1 construct: purchased Sigma Chemical Co. (St Louis, MO, USA)
Source text: Dulbecco's modified Eagle medium (DMEM), α-minimum essential medium (α-MEM) and fetal bovine serum (FBS) were provided by Hyclone (Waltham, USA). 3-(4,5-Dimethylthiazol-2-yl)-2,5-diphenyltetrazolium bromide (MTT), acetylcholinesterase (AChE) from Electrophorus electrics (Electric eel) and lipopolysaccharide (LPS) (Escherichia coli 055: B5) were provided by Sigma Chemical Co. (St Louis, MO, USA). Enzyme-linked immunosorbent assay (ELISA) kits for IL-1β and TNF-α and Griess reagent for nitric oxide (NO) assay kit were provided by ExCell Bio (Shanghai, China). Antibodies for TLR4, MyD88, JNK, p-JNK, p38, p-p38, ERK, p-ERK, IκB, p-IκB, IKK, p-IKK, NF-κB, STAT3、p-STAT3、Jak2, p-Jak2, GAPDH and Histone H3 were purchased from Cell Signaling Technology (Danvers, USA). Antibodies for iNOS and COX-2 were provided by Abcam (Cambridge, UK).
AChE activities in vitro and in vivo were assessed by a modified Ellman's spectrophotometric method ([Szwajgier, 2015]). Briefly, AChE (80 μl) in phosphate buffer (Na2HPO4/NaH2PO4, pH 8.0) and compound (20 μl) diluted in same phosphate buffer were added to 96 microplates as the reaction mixture. The mixture was incubated at 37°C for 30 min before addition of 10 μl 5,5′-dithiobis (2-nitrobenzoic acid) (DTNB) (3 mM) and 10 μl acetylthiocholine iodide (ATCI) (15 mM). After incubation for 20 min, the absorbance was detected at 412 nm using a microplate spectrophotometer (Thermo Scientifics, USA). […] The inhibitory rate of AChE was calculated, and the IC50 values were calculated by GraphPad Prism® 5.0 software (GraphPad Inc., San Diego, USA).

Recombinant AChE = Recombinant AChE (Homo sapiens, UniProt P22303); assay: biochemical; details: SPR, 25°C, 1:1 Langmuir binding model; read-out: AChE Affinity Kd
Description: The experiments for surface plasmon resonance (SPR) interaction were conducted at 25°C using the Biacore T200 system (GE Healthcare, Sweden). Recombinant AChE diluted in sodium acetate buffer (100 mM, pH 4.5) was used as the stock for the following experiments. CM5 sensor chips were coupled with AChE using an amine coupling kit (GE Healthcare, Buckinghamshire, UK). Thereafter, different concentrations of compounds were injected as analytes using PBS-P (10mM phosphate buffer with 2.7 mM KCl and 137 mM NaCl, 0.05% polysorbate 20, […]) as running buffer. For binding assays, the analytes were introduced with a 60 s contact time followed by a 60 s dissociation time at a flow rate of 45 μl/min. The surface was regenerated with 10 mM glycine (pH 3.0) for 30 s. The affinity constants were calculated using the 1:1 Langmuir binding model of Biacore evaluation software (T200 Version 1.0).

BV-2 cells = assay: LPS-induced NO production in BV-2 cells (Griess method); type: cell-based, murine; details: 1 μg/ml LPS, 24 h
Description: BV-2 cells (murine microglia cell line) was obtained from Peking Union Medical College, Cell Bank (Beijing, China) and maintained in DMEM containing 10% FBS. Cells were grown in a humidified atmosphere of 5% CO2 incubator at 37°C.
BV2 cells were seeded and incubated overnight, and followed by treatment with different doses of circumdatins for indicated period with or without LPS (1 μg/ml) stimulation. The cells without circumdatins and LPS treatment were used as the control group.
The NO levels in culture media was determined using a Griess method. Cells were treated with different concentrations of circumdatins in the presence or absence of LPS for 24 h. After that, the supernatant fraction of the culture media was collected and mixed with the same volume of Griess reagent (1% sulfanilamide/0.1% naphthyl ethylene diamine dihydrochloride/2% H3PO4). Then, the absorbance was measured at 540 nm using a microplate spectrophotometer (Thermo Scientifics, USA). The concentration of nitrite was calculated from a calibration curve obtained from standards sodium nitrite solutions.

Recombinant AChE, sequence (P22303 32-614): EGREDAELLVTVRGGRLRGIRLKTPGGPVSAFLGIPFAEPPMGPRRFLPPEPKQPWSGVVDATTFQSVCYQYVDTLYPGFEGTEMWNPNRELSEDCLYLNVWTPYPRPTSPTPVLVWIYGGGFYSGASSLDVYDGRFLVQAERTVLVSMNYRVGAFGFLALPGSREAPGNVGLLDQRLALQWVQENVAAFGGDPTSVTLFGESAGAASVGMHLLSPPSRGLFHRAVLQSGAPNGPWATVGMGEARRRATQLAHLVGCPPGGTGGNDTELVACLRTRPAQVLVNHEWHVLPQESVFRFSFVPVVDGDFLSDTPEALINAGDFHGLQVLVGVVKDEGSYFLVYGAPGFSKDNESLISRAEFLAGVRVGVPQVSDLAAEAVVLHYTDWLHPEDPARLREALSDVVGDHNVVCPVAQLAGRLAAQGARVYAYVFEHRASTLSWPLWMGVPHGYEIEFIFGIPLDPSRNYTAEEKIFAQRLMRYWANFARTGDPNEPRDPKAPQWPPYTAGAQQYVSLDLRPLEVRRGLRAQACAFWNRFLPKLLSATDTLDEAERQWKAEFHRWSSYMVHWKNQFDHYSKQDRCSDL
T1 sequence (O42275 24-633): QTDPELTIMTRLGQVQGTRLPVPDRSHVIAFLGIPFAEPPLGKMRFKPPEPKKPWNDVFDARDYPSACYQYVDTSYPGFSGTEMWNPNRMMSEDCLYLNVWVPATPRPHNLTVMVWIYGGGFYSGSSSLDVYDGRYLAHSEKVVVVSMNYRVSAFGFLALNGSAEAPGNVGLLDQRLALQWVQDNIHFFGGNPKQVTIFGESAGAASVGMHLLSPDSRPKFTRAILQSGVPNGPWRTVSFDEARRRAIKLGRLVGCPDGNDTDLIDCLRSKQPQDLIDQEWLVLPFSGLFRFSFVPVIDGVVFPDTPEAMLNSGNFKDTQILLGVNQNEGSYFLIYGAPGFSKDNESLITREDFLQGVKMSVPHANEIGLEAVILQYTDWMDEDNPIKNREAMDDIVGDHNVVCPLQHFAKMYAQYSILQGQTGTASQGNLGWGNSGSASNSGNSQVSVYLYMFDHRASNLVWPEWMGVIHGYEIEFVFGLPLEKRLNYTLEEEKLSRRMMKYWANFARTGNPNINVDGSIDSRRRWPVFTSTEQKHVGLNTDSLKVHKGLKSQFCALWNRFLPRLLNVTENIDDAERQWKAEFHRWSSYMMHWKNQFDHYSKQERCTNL

Row | Compound | IC50 (NF-κB) [µM] | IC50 [1] [µM] | Kd (Recombinant AChE) [µM] | LPS-induced NO production (BV-2 cells)
1 | C[C@@H]1NC(=O)c2cc(O)c(O)cc2-n2c1nc1ccccc1c2=O [2-hydroxycircumdatin C] | 16.5 ± 1.9 | 5.6 ± 0.9 | 3.6 | 
2 | C[C@@H]1NC(=O)c2cc(O)ccc2-n2c1nc1ccccc1c2=O [circumdatin C] | 15.6 ± 2.3 |  | 85 | decreased NO production only in high dose
3 | C[C@@H]1NC(=O)c2ccccc2-n2c1nc1ccccc1c2=O [circumdatin F] | 11.8 ± 0.9 | 10 ± 1.9 | 240 | decreased NO production only in high dose
4 | C[C@@H]1NC(=O)c2ccccc2-n2c1nc1c(O)cccc1c2=O [circumdatin G] | 18.9 ± 2.1 | 15.8 ± 2 | 120 | significant reduction of NO levels
5 | COc1ccc2nc3n(c(=O)c2c1)-c1ccccc1C(=O)N1CCC[C@@H]31 [circumdatin H] | 33.3 ± 1.4 | 98 ± 5.7 | 95 | decreased NO production only in high dose
6 | C[C@@H]1NC(=O)c2cc(O)ccc2-n2c1nc1c(O)cccc1c2=O [circumdatin I] | 18.6 ± 1.9 | 11.6 ± 2.6 | 65 | decreased NO production only in high dose
